Data taken from the supplement of paper PMC11061612.

Assays:
[1] = compound: C[C@@H]1COCCN1C2=NC(=NC(=C2)C3(CC3)[S@](=N)(=O)C)C4=C5C=CNC5=NC=C4 [AZD6738]; details: max 10 µM
Outline: (§1)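 Cancer cell lines were dosed for 72 hours (final DMSO typically 0.2%) after 24 hours at 37°C and 5% CO2 in 1536-well plates containing 7.5 μl DMEM/F12 or RPMI with 10% FBS. Viability came from CellTiter-Glo 2.0 luminescence, scaled between blank-well and DMSO-well means, and dose responses were fitted to a two-parameter logistic curve with a non-linear mixed effects model. The single-agent IC50 was obtained from this fit.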

[2] = compound: C[C@@H](Nc1cc(F)cc(F)c1)c1cc(C(=O)N(C)C)cc2c(=O)cc(N3CCOCC3)oc12 [AZD8186]; details: max 10 µM
Outline: as §1

[3] = compound: O=C(c1cc(Cc2n[nH]c(=O)c3ccccc23)ccc1F)N1CCN(C(=O)C2CC2)CC1 [Olaparib]; details: max 10 µM
Outline: as §1

[4] = compound: NC1(c2ccc(-c3nc4ccn5c(=O)[nH]nc5c4cc3-c3ccccc3)cc2)CCC1 [MK-2206]; details: max 10 µM
Outline: as §1

[5] = compound: CC(=O)O[C@H]1C(=O)[C@@]2(C)[C@H]([C@H](OC(=O)c3ccccc3)[C@]3(O)C[C@H](OC(=O)[C@H](O)[C@@H](NC(=O)c4ccccc4)c4ccccc4)C(C)=C1C3(C)C)[C@]1(OC(C)=O)CO[C@@H]1C[C@@H]2O [Paclitaxel]; details: max 3 µM
Outline: as §1

[6] = compound: C[C@@H](c1ccc2nccn2c1)n1nnc2ncc(-c3cnn(C)c3)nc21 [Savolitinib]; details: max 1 µM
Outline: as §1

[7] = compound: CC(C)n1c(=O)n(C)c2cnc3cc(F)c(-c4ccc(OCCCN5CCCCC5)nc4)cc3c21 [AZD1390]; details: max 0.3 µM
Outline: as §1

[8] = compound: Nc1ccn([C@@H]2O[C@H](CO)[C@@H](O)C2(F)F)c(=O)n1 [Gemcitabine]; details: max 0.3 µM
Outline: as §1

[9] = compound: CCc1c2c(nc3ccc(O)cc13)-c1cc3c(c(=O)n1C2)COC(=O)[C@]3(O)CC [SN-38]; details: max 0.3 µM
Outline: as §1

[10] = compound: CN(C)CCCOc1ccc(-c2ccc3ncc4c(c3c2)n(C2CCOCC2)c(=O)n4C)cn1 [AZD0156]; details: max 3 µM
Outline: as §1

[11] = compound: O=C(Nc1ccc2[nH]nc(-c3ccncc3)c2c1)[C@@H]1CCN(CC(=O)N2CCN(c3ccc(-c4ncccn4)cc3)CC2)C1; details: max 5 µM
Outline: as §1

[12] = compound: COc1cc2ncnc(Nc3ccc(F)c(Cl)c3)c2cc1OCCCN1CCOCC1 [Gefitinib]; details: max 10 µM
Outline: as §1

[13] = compound: COc1nnc2ccc(N3CCC(c4ccc(OCCN5CCN(C)C(=O)[C@H]5C)cc4)CC3)nn12 [AZD5153]; details: max 1 µM
Outline: as §1

[14] = compound: CN(CC[C@H](CSC1=CC=CC=C1)NC2=C(C=C(C=C2)S(=O)(=O)NC(=O)C3=CC=C(C=C3)N4CCC(CC4)[C@H](C5=CC=CC=C5C6=CC=C(C=C6)Cl)O)S(=O)(=O)C(F)(F)F)CCO [AZD4320]; details: max 1 µM
Outline: as §1

[15] = compound: C1CN(CCC1(C(=O)N[C@@H](CCO)C2=CC=C(C=C2)Cl)N)C3=NC=NC4=C3C=CN4 [AZD5363]; details: max 10 µM
Outline: as §1

[16] = compound: Cn1cnc2c(F)c(Nc3ccc(Br)cc3Cl)c(C(=O)NOCCO)cc21 [Selumetinib]; details: max 10 µM
Outline: as §1

[17] = compound: Cc1cc2ncnn2cc1Nc1ncc2c(n1)n(C1CCOCC1)c(=O)n2C [AZD7648]; details: max 10 µM
Outline: as §1

[18] = compound: C1CC(C1)(C(=O)[O-])C(=O)[O-].N.N.[Pt+2] [Carboplatin]; details: max 10 µM
Outline: as §1

[19] = compound: C[C@@H](Oc1cc(-c2cnn(C3CCNCC3)c2)cnc1N)c1c(Cl)ccc(F)c1Cl [Crizotinib]; details: max 10 µM
Outline: as §1

[20] = compound: CC(=O)c1c(C)c2cnc(Nc3ccc(N4CCNCC4)cn3)nc2n(C2CCCC2)c1=O [Palbociclib]; details: max 10 µM
Outline: as §1

[21] = compound: CCN(CCO)CCCOc1ccc2c(Nc3cc(CC(=O)Nc4cccc(F)c4)[nH]n3)ncnc2c1 [AZD2811]; details: max 1 µM
Outline: as §1

[22] = compound: CC1(C)CCC(CN2CCN(c3ccc(C(=O)NS(=O)(=O)c4ccc(NCC5CCOCC5)c([N+](=O)[O-])c4)c(Oc4cnc5[nH]ccc5c4)c3)CC2)=C(c2ccc(Cl)cc2)C1 [Venetoclax]; details: max 1 µM
Outline: as §1

[23] = compound: CS(=O)(=O)CCNCc1ccc(-c2ccc3ncnc(Nc4ccc(OCc5cccc(F)c5)c(Cl)c4)c3c2)o1 [Lapatinib]; details: max 10 µM
Outline: as §1

[24] = compound: Cc1c2c(nn1C)CSCc1cc(n(C)n1)CSc1cc(c3ccccc3c1)OCCCc1c(C(=O)O)n(C)c3c-2c(Cl)ccc13 [AZD5991]; details: max 1 µM
Outline: as §1

[25] = compound: C=CCn1c(=O)c2cnc(Nc3ccc(N4CCN(C)CC4)cc3)nc2n1-c1cccc(C(C)(C)O)n1 [AZD1775]; details: max 3 µM
Outline: as §1

[26] = compound: N#Cc1cnc(Nc2cc(NC[C@H]3CNCCO3)c(C(F)(F)F)cn2)cn1 [SRA737]; details: max 10 µM
Outline: as §1

[27] = compound: O=c1[nH]cc(F)c(=O)[nH]1 [5-Fluorouracil]; details: max 20 µM
Outline: as §1

[28] = compound: Cc1nc(-c2cn3c(n2)-c2ccc(-c4cnn(C(C)(C)C(N)=O)c4)cc2OCC3)n(C(C)C)n1 [Taselisib]; details: max 10 µM
Outline: as §1

[29] = compound: COc1cc([C@@H]2c3cc4c(cc3[C@@H](O[C@@H]3O[C@@H]5CO[C@@H](C)O[C@H]5[C@H](O)[C@H]3O)[C@H]3COC(=O)[C@H]23)OCO4)cc(OC)c1O [Etoposide]; details: max 10 µM
Outline: as §1

[30] = compound: COc1cccc2c1C(=O)c1c(O)c3c(c(O)c1C2=O)C[C@@](O)(C(=O)CO)C[C@@H]3O[C@H]1C[C@H](N)[C@H](O)[C@H](C)O1 [Doxorubicin]; details: max 1 µM
Outline: as §1

[31] = compound: CC(=O)Nc1cccc(-n2c(=O)n(C3CC3)c(=O)c3c(Nc4ccc(I)cc4F)n(C)c(=O)c(C)c32)c1 [Trametinib]; details: max 1 µM
Outline: as §1

[32] = compound: COc1cccc(OCCCN)c1-c1cc(Nc2cnc(C#N)cn2)n[nH]1 [Prexasertib]; details: max 1 µM
Outline: as §1

[33] = compound: CC1=C(C(=CC=C1)Cl)NC(=O)C2=CN=C(S2)NC3=CC(=NC(=N3)C)N4CCN(CC4)CCO [Dasatinib]; details: max 2 µM
Outline: as §1

[34] = compound: COc1cc(Nc2ncc3c(n2)-c2ccc(Cl)cc2C(c2c(F)cccc2OC)=NC3)ccc1C(=O)O [Alisertib]; details: max 10 µM
Outline: as §1

[35] = compound: CC1=CN2[C@@H](C1)C=NC3=CC(=C(C=C3C2=O)OC)OCCCCCOC4=C(C=C5C(=C4)N=C[C@@H]6CC(=CN6C5=O)C)OC [SG3199]; details: max 0.001 µM
Outline: as §1

Cell Line	IC50, cell viability 72 h [1] [µM]	IC50, cell viability 72 h [2] [µM]	IC50, cell viability 72 h [3] [µM]	IC50, cell viability 72 h [4] [µM]	IC50, cell viability 72 h [5] [nM]	IC50, cell viability 72 h [6] [nM]	IC50, cell viability 72 h [7] [nM]	IC50, cell viability 72 h [8] [nM]	IC50, cell viability 72 h [9] [nM]	IC50, cell viability 72 h [10] [nM]	IC50, cell viability 72 h [11] [nM]	IC50, cell viability 72 h [12] [µM]	IC50, cell viability 72 h [13] [nM]	IC50, cell viability 72 h [14] [nM]	IC50, cell viability 72 h [15] [µM]	IC50, cell viability 72 h [16] [µM]	IC50, cell viability 72 h [17] [µM]	IC50, cell viability 72 h [18] [µM]	IC50, cell viability 72 h [19] [nM]	IC50, cell viability 72 h [20] [µM]	IC50, cell viability 72 h [21] [nM]	IC50, cell viability 72 h [22] [nM]	IC50, cell viability 72 h [23] [µM]	IC50, cell viability 72 h [24] [nM]	IC50, cell viability 72 h [25] [nM]	IC50, cell viability 72 h [26] [nM]	IC50, cell viability 72 h [27] [µM]	IC50, cell viability 72 h [28] [µM]	IC50, cell viability 72 h [29] [nM]	IC50, cell viability 72 h [30] [nM]	IC50, cell viability 72 h [31] [nM]	IC50, cell viability 72 h [32] [nM]	IC50, cell viability 72 h [33] [nM]	IC50, cell viability 72 h [34] [nM]	IC50, cell viability 72 h [35] [nM]
AMO-1 (Plasma Cell Myeloma)	3.18	> 10	> 10	1.15	< 3	> 1000	> 300	15.3	18.4	> 3000	> 5000	> 10	36.6	> 1000	6.03	> 10	> 10	> 10	3000	> 10	> 1000	> 1000	6.71	18.6	633	2010	> 20	3.41	1680	169	> 1000	8.82	> 2000	192	> 1
NB69 (Neuroblastoma)	3.13	7.65	> 10	> 10	15	> 1000	> 300	16	2.16	> 3000	27.2	> 10	37.7	226	> 10	0.232	> 10	> 10	2540	0.491	470	> 1000	9.9	201	444	> 10000	8.72	0.487	166	77.2	3.07	89.9	141	238	> 1
MIA-PaCa-2 (Pancreatic Carcinoma)	8.72	> 10	> 10	> 10	39.5	> 1000	> 300	101	14.6	> 3000	2110	> 10	165	> 1000	> 10	3.37	> 10	> 10	> 10000	> 10	> 1000	> 1000	> 10	> 1000	> 3000	> 10000	> 20	> 10	2890	183	150	67.4	> 2000	3490	> 1
KYSE-450 (Esophageal Squamous Cell Carcinoma)	> 10	> 10	> 10	> 10	67.7	> 1000	> 300	> 300	> 300	> 3000	> 5000	> 10	> 1000	> 1000	> 10	> 10	> 10	> 10	> 10000	> 10	> 1000	> 1000	> 10	> 1000	614	> 10000	> 20	7.52	> 10000	> 1000	> 1000	226	> 2000	> 10000	> 1
KARPAS-299 (T-Cell Non-Hodgkin's Lymphoma)	0.698	> 10	> 10	> 10	30.6	> 1000	> 300	26.6	35.7	> 3000	> 5000	> 10	115	> 1000	> 10	> 10	> 10	> 10	846	> 10	> 1000	708	> 10	326	459	1130	4.46	> 10	3370	523	> 1000	5.15	> 2000	> 10000	> 1
